Values quoted from earlier work, collected in US7419995B2, “N-substituted benzimidazoyl c-Kit inhibitors and combinatorial benzimidazole library” (OSI Pharmaceuticals, Inc., priority 2004, dated 2008).
Where a name gives a salt, the structure may show the parent alone.

Tested on: MO7e human leukemia cells

## Cc1ccc(NC(=O)c2ccc(CN3CCN(C)CC3)cc2)cc1Nc1nccc(-c2cccnc2)n1 [Gleevec, imatinib mesylate]
GM-CSF stimulated
  GM-CSF stimulated growth of MO7e cells: not affected
Kit ligand-stimulated
  Kit ligand-stimulated growth of MO7e cells: inhibited
Kit ligand-stimulated conditions
  apoptosis of MO7e cells: induces apoptosis
